Assay results published in the supplement of paper PMC9013687.
± gives the standard deviation of the averaged measurements.

Tests used:
[1] = system: Danio rerio embryo; experiment: EC50 Pericard size_Increase; settings: exposure time: 4 dpf
Method: (§1)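 Zebrafish embryos (UFZ-OBI strain) were exposed from 2 hpf for 48 h (2 dpf) or 96 h (4 dpf) at 28 °C; spontaneous tail coiling was scored at 25 hpf. Morphological features from automated image analysis (FishInspector), heart rate and locomotor response were fitted with drc models. Quantal endpoints were dichotomised at 2.5 SD from controls and fitted with a log-logistic model; heart rate, pigmentation and STC were normalised to the replicate control mean. Betamethasone was tested as betamethasone dipropionate, diflorasone as diflorasone diacetate.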

[2] = system: Danio rerio embryo; experiment: EC10 Eye-jaw distance_Decrease; higher = less potent; settings: exposure time: 4 dpf
Method: as §1

[3] = system: Danio rerio embryo; experiment: EC20 Body length_Decrease; higher = less potent; settings: exposure time: 2 dpf
Method: as §1

[4] = system: Danio rerio embryo; experiment: EC50 Yolk sac size_Increase; settings: exposure time: 4 dpf
Method: as §1

[5] = system: Danio rerio embryo; settings: exposure time: 4 dpf
Method: as §1

[6] = system: Danio rerio embryo; experiment: EC10 Body length_Decrease; higher = less potent; settings: exposure time: 2 dpf
Method: as §1

[7] = system: Danio rerio embryo; experiment: EC10 LMR dark; higher = less potent; settings: exposure time: 4 dpf
Method: as §1

[8] = system: Danio rerio embryo
Method: as §1

[9] = system: Danio rerio embryo; experiment: EC20 Yolk sac size_Increase; higher = less potent; settings: exposure time: 4 dpf
Method: as §1

[10] = system: Danio rerio embryo; experiment: EC10 Any effect; higher = less potent
Method: as §1

[11] = system: Danio rerio embryo; experiment: EC10 Pericard size_Increase; higher = less potent; settings: exposure time: 4 dpf
Method: as §1

[12] = system: Danio rerio embryo; experiment: EC20 STC decrease; higher = less potent; settings: exposure time: 25 h
Method: as §1

[13] = system: Danio rerio embryo; experiment: EC10 Lack of SB; higher = less potent; settings: exposure time: 4 dpf
Method: as §1

[14] = system: Danio rerio embryo; experiment: EC50 Eye-jaw distance_Decrease; settings: exposure time: 4 dpf
Method: as §1

[15] = system: Danio rerio embryo; experiment: EC10 Yolk sac size_Increase; higher = less potent; settings: exposure time: 4 dpf
Method: as §1

[16] = system: Danio rerio embryo; experiment: EC50 Bladder size_Decrease; settings: exposure time: 4 dpf
Method: as §1

[17] = system: Danio rerio embryo; experiment: EC20 Lack of SB; higher = less potent; settings: exposure time: 4 dpf
Method: as §1

[18] = system: Danio rerio embryo; experiment: EC20 Any effect; higher = less potent
Method: as §1

[19] = system: Danio rerio embryo; experiment: EC20 Bladder size_Decrease; higher = less potent; settings: exposure time: 4 dpf
Method: as §1

[20] = system: Danio rerio embryo; experiment: EC10 Bladder size_Decrease; higher = less potent; settings: exposure time: 4 dpf
Method: as §1

[21] = system: Danio rerio embryo; experiment: EC10 STC decrease; higher = less potent; settings: exposure time: 25 h
Method: as §1

[22] = system: Danio rerio embryo; experiment: EC20 Pigmentation increase; higher = less potent; settings: exposure time: 4 dpf
Method: as §1

[23] = system: Danio rerio embryo; experiment: EC20 Heart rate; higher = less potent
Method: as §1

[24] = system: Danio rerio embryo; experiment: spontaneous tail coiling frequency (coils/min/embryo); higher = more spontaneous movement; settings: 25 hpf
Method: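 Spontaneous tail coilings of zebrafish embryos exposed from 2 hpf were recorded at 24-25 hpf in 1-min videos and detected by a KNIME workflow from grey-value variance. Betamethasone was tested as the dipropionate, diflorasone as the diacetate.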

[25] = system: Danio rerio embryo; experiment: EC20 LMR dark; higher = less potent; settings: exposure time: 4 dpf
Method: as §1

[26] = system: Danio rerio embryo; experiment: EC20 Pericard size_Increase; higher = less potent; settings: exposure time: 4 dpf
Method: as §1

[27] = system: Danio rerio embryo; experiment: EC20 Eye-jaw distance_Decrease; higher = less potent; settings: exposure time: 4 dpf
Method: as §1

[28] = system: Danio rerio embryo; experiment: EC10 Heart rate; higher = less potent
Method: as §1

[29] = system: Danio rerio embryo; experiment: EC10 Pigmentation increase; higher = less potent; settings: exposure time: 4 dpf
Method: as §1

[30] = system: Danio rerio embryo; settings: exposure time: 4 dpf; remark: listed apart in the source
Method: as §1

[31] = system: Danio rerio embryo; experiment: EC50 Body length_Decrease; settings: exposure time: 2 dpf
Method: as §1

CNCCC=C1c2ccccc2CCc2ccccc21 [Nortriptyline]
Settings | EC10 Bladder size Decrease [µM] | EC10 Body length Decrease [µM] | EC10 Eye-jaw distance Decrease [µM] | EC10 LMR dark [µM] | EC10 Lack of SB [µM] | EC10 Pericard size Increase [µM] | EC10 Pigmentation increase [µM] | EC10 STC decrease [µM] | EC10 Yolk sac size Increase [µM] | EC20 Bladder size Decrease [µM] | EC20 Body length Decrease [µM] | EC20 Eye-jaw distance Decrease [µM] | EC20 LMR dark [µM] | EC20 Lack of SB [µM] | EC20 Pericard size Increase [µM] | EC20 Pigmentation increase [µM] | EC20 STC decrease [µM] | EC20 Yolk sac size Increase [µM] | EC50 Bladder size Decrease [µM] | EC50 Body length Decrease [µM] | EC50 Eye-jaw distance Decrease [µM] | EC50 LMR dark [µM] | EC50 Lack of SB [µM] | EC50 Pericard size Increase [µM] | EC50 Yolk sac size Increase [µM]
[1] | – | – | – | – | – | – | – | – | – | – | – | – | – | – | – | – | – | – | – | – | – | – | – | 20.4 | –
[2] | – | – | 16.6 | – | – | – | – | – | – | – | – | – | – | – | – | – | – | – | – | – | – | – | – | – | –
[3] | – | – | – | – | – | – | – | – | – | – | 36.3 | – | – | – | – | – | – | – | – | – | – | – | – | – | –
[4] | – | – | – | – | – | – | – | – | – | – | – | – | – | – | – | – | – | – | – | – | – | – | – | – | 29.2
[5] | – | – | – | – | – | – | – | – | – | – | – | – | – | – | – | – | – | – | – | – | – | 10.3 | – | – | –
[6] | – | 34 | – | – | – | – | – | – | – | – | – | – | – | – | – | – | – | – | – | – | – | – | – | – | –
[7] | – | – | – | 0.745 | – | – | – | – | – | – | – | – | – | – | – | – | – | – | – | – | – | – | – | – | –
[9] | – | – | – | – | – | – | – | – | – | – | – | – | – | – | – | – | – | 18.7 | – | – | – | – | – | – | –
[11] | – | – | – | – | – | 16.5 | – | – | – | – | – | – | – | – | – | – | – | – | – | – | – | – | – | – | –
[12] | – | – | – | – | – | – | – | – | – | – | – | – | – | – | – | – | 8.4 | – | – | – | – | – | – | – | –
[13] | – | – | – | – | 4.59 | – | – | – | – | – | – | – | – | – | – | – | – | – | – | – | – | – | – | – | –
[14] | – | – | – | – | – | – | – | – | – | – | – | – | – | – | – | – | – | – | – | – | 21.5 | – | – | – | –
[15] | – | – | – | – | – | – | – | – | 14.5 | – | – | – | – | – | – | – | – | – | – | – | – | – | – | – | –
[16] | – | – | – | – | – | – | – | – | – | – | – | – | – | – | – | – | – | – | 5.07 | – | – | – | – | – | –
[17] | – | – | – | – | – | – | – | – | – | – | – | – | – | 4.76 | – | – | – | – | – | – | – | – | – | – | –
[19] | – | – | – | – | – | – | – | – | – | 4.76 | – | – | – | – | – | – | – | – | – | – | – | – | – | – | –
[20] | 4.59 | – | – | – | – | – | – | – | – | – | – | – | – | – | – | – | – | – | – | – | – | – | – | – | –
[21] | – | – | – | – | – | – | – | 3.44 | – | – | – | – | – | – | – | – | – | – | – | – | – | – | – | – | –
[22] | – | – | – | – | – | – | – | – | – | – | – | – | – | – | – | 1.83 | – | – | – | – | – | – | – | – | –
[25] | – | – | – | – | – | – | – | – | – | – | – | – | 1.96 | – | – | – | – | – | – | – | – | – | – | – | –
[26] | – | – | – | – | – | – | – | – | – | – | – | – | – | – | 17.8 | – | – | – | – | – | – | – | – | – | –
[27] | – | – | – | – | – | – | – | – | – | – | – | 18.3 | – | – | – | – | – | – | – | – | – | – | – | – | –
[29] | – | – | – | – | – | – | 0.889 | – | – | – | – | – | – | – | – | – | – | – | – | – | – | – | – | – | –
[30] | – | – | – | – | – | – | – | – | – | – | – | – | – | – | – | – | – | – | – | – | – | – | 5.07 | – | –
[31] | – | – | – | – | – | – | – | – | – | – | – | – | – | – | – | – | – | – | – | 40.6 | – | – | – | – | –

Settings | EC10 Any effect [µM] | EC10 Heart rate [µM] | EC20 Any effect [µM] | EC20 Heart rate [µM] | EC50 Any effect [µM] | EC50 STC decrease [µM] | spontaneous tail coiling frequency
[8], exposure time: 2 dpf | – | – | – | – | 50.5 | – | –
[8], exposure time: 4 dpf | – | – | – | – | 22.1 | – | –
[8], exposure time: 25 h | – | – | – | – | – | 39 | –
[10], exposure time: 2 dpf | 30 | – | – | – | – | – | –
[10], exposure time: 4 dpf | 17.5 | – | – | – | – | – | –
[18], exposure time: 2 dpf | – | – | 36.4 | – | – | – | –
[18], exposure time: 4 dpf | – | – | 19.1 | – | – | – | –
[23], exposure time: 2 dpf | – | – | – | 79.7 | – | – | –
[23], exposure time: 4 dpf | – | – | – | 19.3 | – | – | –
[24], 0.3 µM | – | – | – | – | – | – | 2.44
[24], 3.3 µM | – | – | – | – | – | – | 2.01
[24], 13.2 µM | – | – | – | – | – | – | 2.12 ± 0.15
[24], 16.9 µM | – | – | – | – | – | – | 1.32
[24], 19.8 µM | – | – | – | – | – | – | 2.06
[24], 29.6 µM | – | – | – | – | – | – | 1.39 ± 0.13
[24], 33.9 µM | – | – | – | – | – | – | 1.27
[24], 44.5 µM | – | – | – | – | – | – | 1.1
[24], 66.7 µM | – | – | – | – | – | – | 1.79 ± 0.47
[24], 67.8 µM | – | – | – | – | – | – | 1.17
[24], 100 µM | – | – | – | – | – | – | 0.43
[24], 100.1 µM | – | – | – | – | – | – | 1.13
[24], 133.4 µM | – | – | – | – | – | – | 0.28
[24], 135.6 µM | – | – | – | – | – | – | 0
[28], exposure time: 2 dpf | – | 39.8 | – | – | – | – | –
[28], exposure time: 4 dpf | – | 9.66 | – | – | – | – | –
